Patent US20180333389A1, “VITAMIN E COMPOSITIONS AND METHODS OF USE THEREFOR” (BIOELECTRON TECHNOLOGY CORPORATION, priority 2017, published 2018)
Like-named read-outs stand apart in the source and are kept apart here.

Experiments:
[1] = test system: Q7 cells (ST HDH Q7/7; immortalized mouse striatal cells); experiment: Q7 striatal cell survival assay upon cystine deprivation; type: cell-based; conditions: for EC50: Q7 cell survival after 18 h in cystine-free medium, Cell Titer Glo, read-out: EC50 (nM) geometric mean (n ≥ 3 independent experiments); for potency in rescuing Q7 cells from oxidative stress relative to the RRR isomer: compared with RRR-alpha-tocopherol
Protocol: In neuronal cells excess extracellular glutamate inhibits the cystine/glutamate antiporter leading to intracellular cysteine depletion, GSH depletion, ROS production and cell death, a phenomenon termed oxidative glutamate toxicity or oxytosis. Q7 cells (ST HDH Q7/7; immortalized mouse striatal cells) challenged with cystine-free media recapitulate this phenotype. An initial screen was performed to identify compounds effective in rescuing Q7 cells from death resulting from cystine deprivation. This method is further described in Yonezawa et al., J. Neurochem 67, 566-573 (1996), and Li et al., J Neurosci., 23, 5816-5826 (2003).
DMEM (Catalog no. 11995-040), DMEM without Cystine (Catalog no. 21013-024), PBS (Phosphate buffered saline), Penicillin-streptomycin mix, L-Glutamine and Pyruvate were purchased from Gibco. Fetal Bovine Serum was obtained from Mediatech, Inc. Mouse striatum derived ST HDH Q7/7 (Q7) cells were obtained from Dr. M. MacDonald (Massachusetts General Hospital). Methionine and Vitamin K2 were purchased from Sigma Aldrich. Cell Titer Glo 2.0 was purchased from Promega. Geneticin (G418) Sulfate was purchased from Santa Cruz Biotechnology. Cell culture medium (Growth medium) was made by combining 50 mL Fetal Bovine Serum, 100 U/mL penicillin, 100 microgram/mL streptomycin and 400 microgram/mL Geneticin (G418) Sulfate; DMEM was added to make the volume up to 500 mL. Assay medium (without Cystine) was made by combining 50 mL Fetal Bovine Serum, 100 U/mL penicillin, 100 microgram/mL streptomycin, 4 mM L-Glutamine, 1 mM Pyruvate and 30 mg/L Methionine; DMEM without Cystine was added to make the volume up to 500 mL. During the course of the experiments, these solutions were stored at 4° C. The cells were grown in 10-cm diameter tissue culture-treated dishes. Every fourth day, the cells were subcultured by trypsinization and re-seeding at a cell density of 500,000 cells per dish.
Test samples were supplied in 1.5 mL glass vials. The compounds were diluted with an appropriate volume of DMSO to result in a 1 mM stock solution. Once dissolved, they were stored at −20 ° C.
Q7 cells were cultured routinely as described herein. For 384-well cell survival assays, cells were seeded in clear bottom, black wall 384-well tissue culture-treated polystyrene plates by resuspending a cell suspension at a density of 50,000 cells/mL in growth medium, then dispensing 60 microliters of cell suspension per well using either an electronic multichannel pipette or a Multidrop™ Combi Reagent Dispenser (ThermoFisher Scientific), corresponding to 3,000 cells/well. The cell-containing plates were incubated 5 hours at 33° C. in an atmosphere with 95% humidity and 5% CO2 to allow attachment of the cells to the culture plate. 5 hours after cell seeding into the 384-well assay plate, the cell culture medium was replaced by washing 2 times with 70 microliters/well PBS (without Ca^++ and Mg^++) using a BioTek ELx405 plate washer. After the final aspiration, 60 microliters/well of assay medium (without cystine) was added using the Multidrop™ Combi Reagent Dispenser. […]
After medium change to cystine-free medium and compound addition, cell plates were incubated at 33° C. in an atmosphere of 5% CO2 and 95% humidity. […] After 15 minutes of incubation at room temperature, the luminescence (100 ms integration time) per well was determined using the BioTek Synergy plate reader. […]

[2] = target: SQR (sulfide:quinone oxidoreductase) (Homo sapiens, UniProt Q9Y6N5); experiment: SQR activity of alpha-tocopherol quinones (rate of quinone reduction, absorbance at 266 nm); type: biochemical; conditions: for rate of quinone reduction by SQR: 100 μM quinone, 25 nM SQR, 25° C., pH 7.5
Chain of SQR (sulfide:quinone oxidoreductase) (Q9Y6N5 whole entry): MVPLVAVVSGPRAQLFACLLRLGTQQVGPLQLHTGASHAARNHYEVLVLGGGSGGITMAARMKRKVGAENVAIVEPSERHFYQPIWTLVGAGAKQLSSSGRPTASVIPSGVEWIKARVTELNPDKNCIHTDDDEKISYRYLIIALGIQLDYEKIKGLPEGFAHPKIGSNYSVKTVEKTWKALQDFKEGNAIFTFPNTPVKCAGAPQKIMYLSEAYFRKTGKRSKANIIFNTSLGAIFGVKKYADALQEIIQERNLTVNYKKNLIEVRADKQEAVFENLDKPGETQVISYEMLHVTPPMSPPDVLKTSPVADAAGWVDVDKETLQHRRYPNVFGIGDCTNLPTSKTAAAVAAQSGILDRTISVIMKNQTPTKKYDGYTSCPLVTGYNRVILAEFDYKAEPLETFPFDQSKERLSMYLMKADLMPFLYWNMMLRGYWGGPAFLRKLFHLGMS
Protocol: SQR activity in the presence of varying concentrations of the isomers of quinone derivatives of Vitamin E was evaluated by monitoring the rate of quinone reduction using the absorbance of the quinone at 266 nm. Assays were conducted at 25° C. and pH 7.5 in a volume of 100 μL in the following buffer system: 100 mM Tris, 0.5 mM EDTA, 1.0% (w/v) Triton X-100 reduced. Sulfide (as Na2S nonahydrate) as reducing substrate and sulfite (as Na2SO3) as sulfur acceptor substrate were held constant at saturating concentrations of 200 μM and 2 mM, respectively. Quinone substrates were added to final concentrations between 0-200 μM from DMSO stock solutions resulting in 2% final concentration of DMSO (enzymatic rates were independent of DMSO concentration in this range). SQR was added at 25 nM.

[3] = test system: Mouse striatum-derived ST HDH Q7/7 (Q7) cells; experiment: Conversion of alpha-tocopherol to the corresponding quinone in Q7 cells; type: in vitro ADME; conditions: dosed at 1 μM, 3 μM and 10 μM, all three concentrations
Protocol: (§1) DMEM (Catalog no. 11995-040), Penicillin-streptomycin mix, Geneticin (G418) Sulfate were purchased from Thermo Fisher Scientific. Fetal Bovine Serum was obtained from Sigma Aldrich. Mouse striatum-derived ST HDH Q7/7 (Q7) cells were obtained from Dr. M. MacDonald (Massachusetts General Hospital). HepG2 cells were obtained from ATCC. Normal human fibroblast cells (NHF) were obtained from Coriell. Cell culture medium for Q7 cell was prepared by combining 50 mL Fetal Bovine Serum, 100 U/mL penicillin, 100 microgram/mL streptomycin, and 400 microgram/mL Geneticin (G418) Sulfate; DMEM was added to bring the final volume to 500 mL. For HepG2 cells and NHF, cell culture medium was made by combining 50 mL Fetal Bovine Serum, 100 U/mL penicillin, and 100 microgram/mL streptomycin; DMEM was added to bring the final volume to 500 mL. During the course of the experiments, these solutions were stored at 4° C. […]
(§2) Quantification of compounds was determined by mass spectrometry.
(§3) The rate of conversion of R,R,R-alpha-tocopherol (black bars) and a 1:1:1:1:1:1:1:1 equimolar mixture of all 8 stereoisomers of alpha-tocopherol (grey bars) to their corresponding quinones was measured in Q7 cells and is shown in FIG. 4. The percent of total cellular compound in the quinone form was measured at three different dosed concentrations: 1 μM, 3 μM, and 10 μM. […]

[4] = test system: HepG2 cells; experiment: Conversion of alpha-tocopherol to the corresponding quinone in HepG2 cells; type: in vitro ADME; conditions: dosed at 1 μM, 3 μM and 10 μM, all three concentrations
Protocol: as §1, §2
as §3, with “HepG2” for “Q7”, “2.” for “4.”

[5] = test system: Normal human fibroblast cells (NHF); experiment: Conversion of alpha-tocopherol to the corresponding quinone in NHF cells; type: in vitro ADME
Protocol: DMEM (Catalog no. 11995-040), Penicillin-streptomycin mix, Geneticin (G418) Sulfate were purchased from Thermo Fisher Scientific. Fetal Bovine Serum was obtained from Sigma Aldrich. Mouse striatum-derived ST HDH Q7/7 (Q7) cells were obtained from Dr. M. MacDonald (Massachusetts General Hospital). HepG2 cells were obtained from ATCC. Normal human fibroblast cells (NHF) were obtained from Coriell. Cell culture medium for Q7 cell was prepared by combining 50 mL Fetal Bovine Serum, 100 U/mL penicillin, 100 microgram/mL streptomycin, and 400 microgram/mL Geneticin (G418) Sulfate; DMEM was added to bring the final volume to 500 mL. For HepG2 cells and NHF, cell culture medium was made by combining 50 mL Fetal Bovine Serum, 100 U/mL penicillin, and 100 microgram/mL streptomycin; DMEM was added to bring the final volume to 500 mL. During the course of the experiments, these solutions were stored at 4° C. The cells were grown in 150-cm^2 tissue culture-treated flasks until they reached 90% confluency.
Test samples were supplied in 1.5 mL glass vials. The compounds were diluted with an appropriate volume of DMSO to result in a 10 mM stock solution. Once dissolved, they were stored at −20 ° C.
Test samples were applied according to the following protocol:
Q7, HepG2, and NHF Cells were seeded separately in clear bottom, 96-well tissue culture-treated polystyrene plates by resuspending each cell suspension at a density of 200,000 cells/mL in cell culture medium, then dispensing 50 microliters of cell suspension per well using an electronic multichannel pipette, corresponding to 10,000 cells/well. […]
as §2
as §3, with “NHF” for “Q7”, “3.” for “4.”, “two” for “three”, “concentrations:” for “concentrations: 1 μM,”, “μM” for “μM,”

## Cc1c(C)c2c(c(C)c1O)CCC(C)(CCCC(C)CCCC(C)CCCC(C)C)O2 (single isomer, unassigned) [Equal mixture of all 8 stereoisomers of alpha-tocopherol, all-rac alpha-tocopherol]
[1]
  EC50: 313 nM
  potency in rescuing Q7 cells from oxidative stress relative to the RRR isomer: approximately half as potent as the RRR isomer

## CC1=C(C)C(=O)C(CC[C@](C)(O)CCC[C@H](C)CCC[C@H](C)CCCC(C)C)=C(C)C1=O [R,R,R-alpha-tocopherol quinone, (R,R,R)-alpha-tocopherol quinone]
[2]; 100 μM each
  reduction rate relative to the corresponding S,R,R stereoisomer: more than twice
[2]
  rate of quinone reduction by SQR: around 125 nM/s
[2]; in the absence of the S,R,R isomer
  rate of SQR reduction as a function of concentration: increases with increasing R,R,R-alpha-tocopherol quinone concentration
[2]; in the presence of S,R,R-alpha-tocopherol quinone
  rate of SQR reduction, upper limit with increasing concentration of the R,R,R isomer: ≤ 100 nM/s

## Cc1c(C)c2c(c(C)c1O)CC[C@@](C)(CCC[C@H](C)CCC[C@H](C)CCCC(C)C)O2 [RRR-alpha-tocopherol, (R,R,R)-alpha-tocopherol]
[1]; Mus musculus
  EC50: 175 nM
[3]
  percent of compound converted to the quinone form, compared with mixture of all 8 stereoisomers: higher
[4]
  percent of compound converted to the quinone form, compared with mixture of all 8 stereoisomers: higher
[5]; 3 μM
  percent of compound converted, times higher than the mixture of all 8 stereoisomers: approximately 3 times
[5]; 10 μM
  percent of compound converted, times higher than the mixture of all 8 stereoisomers: approximately 2 times
[5]; dosed at 3 μM and 10 μM, both concentrations
  percent of compound converted to the quinone form, compared with mixture of all 8 stereoisomers: higher

## CC1=C(C)C(=O)C(CC[C@](C)(O)CCC[C@H](C)CCC[C@H](C)CCCC(C)C)=C(C)C1=O [S,R,R-alpha-tocopherol quinone, reference compound]
[2]
  rate of quinone reduction by SQR: about 50 nM/s
[2]; 1:1 mixture versus pure R,R,R isomer
  effect on the activity of the R,R,R isomer (SQR activity): inhibitory effect

## Cc1c(C)c2c(c(C)c1O)CC[C@](C)(CCC[C@H](C)CCC[C@H](C)CCCC(C)C)O2 [SRR-alpha-tocopherol]
[1]; Mus musculus
  EC50: 372 nM
[1]
  potency in rescuing Q7 cells from oxidative stress relative to the RRR isomer: approximately half as potent as the RRR isomer
